Experimental data as given in patent US20250290928A1, “METHOD, KIT AND DEVICE FOR DETECTING EXTRACELLULAR VESICLES” (priority 2022, published 2025).
Primed or numbered codes have the meaning given here. *: point of attachment. Dabcyl′ = 4-((4-(dimethylamino)phenyl)azo)benzoic acid, CN(C)c1ccc(/N=N/c2ccc(C(=O)*)cc2)cc1; 5FAM = O=C1OC2(c3ccc(O)cc3Oc3cc(O)ccc32)c2ccc(C(=O)*)cc21

What was measured:
Assay type in all cases: biochemical, Human
[1] = test system: ADAM in the MDA-MB-231-derived extracellular vesicles; assay: Detection of ADAM activity of MDA-MB-231-derived extracellular vesicles with 96-well plate; conditions: Example 39, EV 3.3 μg/mL, reporter 5 μM, buffer (4)
Method: (§1) The MMP14 activity was evaluated with a 96-well plate (manufactured by Thermo Fisher Scientific Inc., model number: 137101). A fluorescence intensity was measured with a fluorescence plate reader (Synergy MX, manufactured by BioTek Instruments, Inc.) at […] every 5 min for 1 hour. For measurement wavelengths, an excitation wavelength of 485±20 nm and a fluorescence wavelength of 528±20 nm were used.
In addition, for detection of ADAM activity, 1 mM EPDAB010 or PEPDAB014 was diluted with the buffer (4) to prepare a 10 μM ADAM detection solution. In addition, for detection of Cathepsin D activity, 1 mM CathD was diluted with the buffer (4) to prepare a 10 μM Cathepsin D detection solution.
50 μL of the ADAM detection solution or the Cathepsin D detection solution was added to 50 μL of each of the samples, a reaction was performed at 30° C., and activity was evaluated.

[2] = test system: ADAM in the MDA-MB-231-derived extracellular vesicles; assay: Digital detection of MDA-MB-231-derived extracellular vesicles through ADAM activity in wells; conditions: for Extracellular vesicle concentration: at a concentration of x1, 50 fL; for Expected value λ / Number of positives / Positive ratio: Example 40, EV 2 μg/mL, reporter 5 μM, 30° C.
Method: The concentration of the solution is 4 μg/mL.
50 μL of the ADAM or Cathepsin D detection solution was added to 50 μL of the sample to provide a reaction solution for wells.

[3] = test system: MMP in the MDA-MB-231-derived extracellular vesicles; assay: Digital detection of MDA-MB-231-derived extracellular vesicles through MMP activity in wells (SB substrates); conditions: for Expected value λ / Number of positives / Positive ratio: 6 h; for Extracellular vesicle concentration / Expected value λ (×1): Example 35, 6 h; for Extracellular vesicle concentration: at a concentration of x1, 50 fL; for Expected value λ (×1): from power approximation equation
Method: The concentration of the solution is 10 μg/mL. […] The solution was further diluted 2-fold to prepare a standard sample at a concentration of x1/4, further diluted 3-fold to prepare a standard sample at a concentration of x1/12, and further diluted 3-fold to prepare a standard sample at a concentration of x1/36. Thus, the standard samples with four concentrations were prepared.
In addition, 1 mM Alexa Fluor 647 was used as a standard fluorescent substance, and each of the MMP14 detection solutions contained the standard fluorescent substance at a final concentration of 2 μM.
(§2) 50 μL of each of the MMP detection solutions was added to 50 μL of each of the samples, a reaction was performed at 30° C., and MMP activity was evaluated.

[4] = test system: MMP in the MDA-MB-231-derived extracellular vesicles; assay: Evaluation of MMP activity of MDA-MB-231-derived extracellular vesicles with 96-well plate (SensoLyte 520 MMP Substrate Sampler Kit); conditions: for Fluorescence change after 1 hour of reaction at 30° C.: Example 34, EV 4 μg/mL, reporter 5 μM, buffer (4); for Fluorescence change after 2 hours of reaction at 30° C.: MP, EV 3.3 μg/mL
Method: (§3) 50 μL of the MMP detection solution was added to 50 μL of each of the samples, a reaction was performed at 30° C., and MMP activity was evaluated.
as §2

[5] = test system: MMP in the A549-derived extracellular vesicles; assay: Digital detection of A549-derived extracellular vesicles through MMP activity in wells (SB substrates); conditions: for Extracellular vesicle concentration: at a concentration of x1, 50 fL; for Expected value λ / Number of positives / Positive ratio: Example 36, EV 5 μg/mL, reporter 5 μM, 30° C.
Method: The concentration of the solution is 10 μg/mL.
50 μL of each of the MMP detection solutions was added to 50 μL of the sample to provide a reaction solution for wells.

[6] = test system: MMP in the A549-derived extracellular vesicles; assay: Evaluation of MMP activity of A549-derived extracellular vesicles with 96-well plate (SensoLyte 520 MMP Substrate Sampler Kit); conditions: Example 34, EV 4 μg/mL, reporter 5 μM, buffer (4)
Method: as §1, §3

[7] = Example 35, 30° C., EV 0 (free of extracellular vesicles, pseudopositive)
[8] = Example 35, 30° C., EV 1/4 a.u.
[9] = Example 35, 30° C., EV 1/12 a.u.
[10] = Example 35, 30° C., EV 1/36 a.u.
[11] = Example 35, reporter 5 μM, 30° C., EV 1/2 a.u. (5 μg/mL in reaction solution)
[12] = 1.25 μM with 1.25 μM Custom #2T

Q: Which results are given for “Dabcyl-EHADLLAVVAK (5FAM)-NH2 ({Dabcyl′}-EHADLLAVVAK(5FAM)-NH2; SMILES CC(C)C[C@H](NC(=O)[C@H](CC(C)C)NC(=O)[C@H](CC(=O)O)NC(=O)[C@H](C)NC(=O)[C@H](Cc1c[nH]cn1)NC(=O)[C@H](CCC(=O)O)NC(=O)c1ccc(/N=N/c2ccc(N(C)C)cc2)cc1)C(=O)N[C@@H](C)C(=O)N[C@H](C(=O)N[C@H](C(=O)N[C@@H](C)C(=O)N[C@@H](CCCCNC(=O)c1ccc2c(c1)C(=O)OC21c2ccc(O)cc2Oc2cc(O)ccc21)C(N)=O)C(C)C)C(C)C) [PEPDAB014]”?
A: Fluorescence change after 2 hours of reaction at 30° C. [1]: 6,939 ΔRFU; Expected value λ (×1) ([2]; Example 40, 4 hr): 0.2813; Extracellular vesicle concentration ([2]; Example 40, 4 hr): 5.625e+09 mL⁻¹; Expected value λ (×1) ([2]; Example 40, 24 hr): 0.4087; Extracellular vesicle concentration ([2]; Example 40, 24 hr): 8.174e+09 mL⁻¹; Expected value λ ([2]; 4 hr): 0.05625; Number of positives ([2]; 4 hr): 1,536; Positive ratio ([2]; 4 hr): 0.0547; Expected value λ ([2]; 24 hr): 0.08174; Number of positives ([2]; 24 hr): 2,204; Positive ratio ([2]; 24 hr): 0.07849

Q: “Dabcyl-SPLAQAVRSSK (5FAM)-NH2 ({Dabcyl′}-SPLAQAVRSSK(5FAM)-NH2; SMILES CC(C)C[C@H](NC(=O)[C@@H]1CCCN1C(=O)[C@H](CO)NC(=O)c1ccc(/N=N/c2ccc(N(C)C)cc2)cc1)C(=O)N[C@@H](C)C(=O)N[C@@H](CCC(N)=O)C(=O)N[C@@H](C)C(=O)N[C@H](C(=O)N[C@@H](CCCNC(=N)N)C(=O)N[C@@H](CO)C(=O)N[C@@H](CO)C(=O)N[C@@H](CCCCNC(=O)c1ccc2c(c1)C(=O)OC21c2ccc(O)cc2Oc2cc(O)ccc21)C(N)=O)C(C)C) [PEPDAB010]” was tested. Which “Fluorescence change after 2 hours of reaction at 30° C.” value (shortened to “Fluorescence change after 2 hours”) [1] did it give?
A: 74,285 ΔRFU

Q: And the “Expected value λ (×1)” value ([2]; Example 40, 4 hr)?
A: 0.4984

Q: What about the Extracellular vesicle concentration ([2]; Example 40, 4 hr) of the same substance?
A: 9.968e+09 mL⁻¹

Q: What about the “Expected value λ (×1)” value ([2]; Example 40, 24 hr) of the same substance?
A: 0.8509

Q: And the Extracellular vesicle concentration ([2]; Example 40, 24 hr)?
A: 1.702e+10 mL⁻¹

Q: And the “Expected value λ” value ([2]; 4 hr)?
A: 0.09968

Q: And the Number of positives ([2]; 4 hr)?
A: 2,664

Q: And the Positive ratio ([2]; 4 hr)?
A: 0.09487

Q: What about the “Expected value λ” value ([2]; 24 hr) of the same substance?
A: 0.1702

Q: What about the Number of positives ([2]; 24 hr) of the same substance?
A: 4,394

Q: What about the Positive ratio ([2]; 24 hr) of the same substance?
A: 0.1565

Q: With “QXL520-Pro-Leu-Gly-Met-Trp-Ser-Arg-Lys(5-FAM)-NH2 (QXL520-PLGMWSRK(5FAM)-NH2) [SB6]” as the substance, how does the “Expected value λ” value [3, 7] read?
A: 3.57E−05

Q: What about the Number of positives [3, 7] of the same substance?
A: 1

Q: What about the Positive ratio [3, 7] of the same substance?
A: 3.57E−05

Q: And the “Expected value λ” value [3, 8]?
A: 0.5449

Q: And the Number of positives [3, 8]?
A: 11,797

Q: And the Positive ratio [3, 8]?
A: 0.4201

Q: And the “Expected value λ” value [3, 9]?
A: 0.09454

Q: What about the Number of positives [3, 9] of the same substance?
A: 2,533

Q: And the Positive ratio [3, 9]?
A: 0.09021

Q: What about the “Expected value λ” value [3, 10] of the same substance?
A: 0.04778

Q: And the Number of positives [3, 10]?
A: 1,310

Q: And the Positive ratio [3, 10]?
A: 0.04665

Q: What about the Extracellular vesicle concentration [3] of the same substance?
A: 4.3e+10 mL⁻¹

Q: And the “Expected value λ (×1)” value [3]?
A: 2.1589

Q: And the “Expected value λ” value [3, 11]?
A: 1.006

Q: And the Number of positives [3, 11]?
A: 17,761

Q: And the Positive ratio [3, 11]?
A: 0.6343

Q: And the “Fluorescence change after 1 hour of reaction at 30° C.” value [4]?
A: 52,130 ΔRFU

Q: And the “Fluorescence change after 2 hours” value [4, 12]?
A: 37,893 ΔRFU

Q: And the “Fluorescence change after 2 hours” value ([4]; 5 μM with 5 μM Custom #2T)?
A: 57,158 ΔRFU

Q: What about the “Expected value λ (×1)” value ([5]; Example 36, 4 hr) of the same substance?
A: 0.141

Q: And the Extracellular vesicle concentration ([5]; Example 36, 4 hr)?
A: 2.819e+09 mL⁻¹

Q: What about the “Expected value λ (×1)” value ([5]; Example 36, 24 hr) of the same substance?
A: 0.09817

Q: What about the Extracellular vesicle concentration ([5]; Example 36, 24 hr) of the same substance?
A: 1.963e+09 mL⁻¹

Q: And the “Expected value λ” value ([5]; 4 hr)?
A: 0.07048

Q: What about the Number of positives ([5]; 4 hr) of the same substance?
A: 1,911

Q: What about the Positive ratio ([5]; 4 hr) of the same substance?
A: 0.06806

Q: What about the “Expected value λ” value ([5]; 24 hr) of the same substance?
A: 0.04908

Q: And the Number of positives ([5]; 24 hr)?
A: 1,345

Q: What about the Positive ratio ([5]; 24 hr) of the same substance?
A: 0.0479

Q: What about the “Fluorescence change after 1 hour of reaction at 30° C.” value [6] of the same substance?
A: 2,043 ΔRFU

Q: What does the source list for “QXL520-Pro-Tyr-Ala-Tyr-Trp-Met-Arg-Lys(5-FAM)-NH2 (QXL520-PYAYWMRK(5FAM)-NH2) [SB7]”?
A: Expected value λ [3, 7]: 0.000107; Number of positives [3, 7]: 3; Positive ratio [3, 7]: 0.000107; Expected value λ [3, 8]: 0.3689; Number of positives [3, 8]: 8,663; Positive ratio [3, 8]: 0.3085; Expected value λ [3, 9]: 0.03574; Number of positives [3, 9]: 986; Positive ratio [3, 9]: 0.03511; Expected value λ [3, 10]: 0.01933; Number of positives [3, 10]: 536; Positive ratio [3, 10]: 0.01914; Extracellular vesicle concentration [3]: 6.8e+10 mL⁻¹; Expected value λ (×1) [3]: 3.4196; Expected value λ [3, 11]: 1.56; Number of positives [3, 11]: 22,181; Positive ratio [3, 11]: 0.7899; Fluorescence change after 1 hour of reaction at 30° C. [4]: 39,031 ΔRFU; Fluorescence change after 2 hours of reaction at 30° C. [4, 12]: 28,167 ΔRFU; Fluorescence change after 2 hours of reaction at 30° C. ([4]; 5 μM with 5 μM Custom #2T): 32,014 ΔRFU; Expected value λ (×1) ([5]; Example 36, 4 hr): 0.02833; Extracellular vesicle concentration ([5]; Example 36, 4 hr): 5.667e+08 mL⁻¹; Expected value λ (×1) ([5]; Example 36, 24 hr): 0.00264; Extracellular vesicle concentration ([5]; Example 36, 24 hr): 5.274e+07 mL⁻¹; Expected value λ ([5]; 4 hr): 0.01417; Number of positives ([5]; 4 hr): 395; Positive ratio ([5]; 4 hr): 0.01407; Expected value λ ([5]; 24 hr): 0.00132; Number of positives ([5]; 24 hr): 37; Positive ratio ([5]; 24 hr): 0.00132; Fluorescence change after 1 hour of reaction at 30° C. [6]: 1,228 ΔRFU
